How the values were obtained:
Test in all cases: relative viability (nuclei count vs DMSO), 5 days (fraction); higher = more cells survive
[1] = compound: CN1C=C(C2=CC=CC=C21)/C=C\3/C4=C(C=CC=N4)NC3=O + CC(C)C[C@H](NC(=O)[C@H](Cc1ccccc1)NC(=O)c1cnccn1)B(O)O [Bortezomib] (partner 0.002 µM)
How it was run: (§1)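 Each reported value is a median over duplicate plates. It expresses relative viability: treated-well nuclei count divided by vehicle-well nuclei count. Lung cancer cell lines in 1536-well plates were dosed by pin tool a day after seeding, alone with one drug or with a fixed anchor-drug dose plus five library-drug doses (not always all listed) in √10 steps, and nuclei were counted after 5 days.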

Trametinib + Crizotinib = compound: CC(=O)Nc1cccc(-n2c(=O)n(C3CC3)c(=O)c3c(Nc4ccc(I)cc4F)n(C)c(=O)c(C)c32)c1 [Trametinib] + C[C@@H](Oc1cc(-c2cnn(C3CCNCC3)c2)cnc1N)c1c(Cl)ccc(F)c1Cl [Crizotinib] (partner 1 µM)
How it was run: as §1

[2] = compound: CN1C=C(C2=CC=CC=C21)/C=C\3/C4=C(C=CC=N4)NC3=O + CS(=O)(=O)CCNCc1ccc(-c2ccc3ncnc(Nc4ccc(OCc5cccc(F)c5)c(Cl)c4)c3c2)o1 [Lapatinib] (partner 2 µM)
How it was run: as §1

Trametinib + Vorinostat = compound: CC(=O)Nc1cccc(-n2c(=O)n(C3CC3)c(=O)c3c(Nc4ccc(I)cc4F)n(C)c(=O)c(C)c32)c1 [Trametinib] + O=C(CCCCCCC(=O)Nc1ccccc1)NO [Vorinostat] (partner 1 µM)
How it was run: as §1

Cell Line: UMC-11
- relative viability ([1]; first compound 0.02 µM): 0.668
- relative viability ([1]; first compound 0.06325 µM): 0.263
- relative viability ([1]; first compound 0.2 µM): 0.572
- relative viability ([1]; first compound 0.6325 µM): 0.761
- relative viability ([1]; first compound 2 µM): 0.926
- relative viability (Trametinib + Crizotinib; first compound 0.0025 µM): 0.634
- relative viability (Trametinib + Crizotinib; first compound 0.007906 µM): 0.591
- relative viability (Trametinib + Crizotinib; first compound 0.025 µM): 0.679
- relative viability (Trametinib + Crizotinib; first compound 0.07906 µM): 0.647
- relative viability (Trametinib + Crizotinib; first compound 0.25 µM): 0.566
- relative viability ([2]; first compound 0.02 µM): 0.854
- relative viability ([2]; first compound 0.06325 µM): 0.901
- relative viability ([2]; first compound 0.2 µM): 0.632
- relative viability ([2]; first compound 0.6325 µM): 0.897
- relative viability ([2]; first compound 2 µM): 1.33
- relative viability (Trametinib + Vorinostat; first compound 0.0025 µM): 0.327
- relative viability (Trametinib + Vorinostat; first compound 0.007906 µM): 0.352
- relative viability (Trametinib + Vorinostat; first compound 0.07906 µM): 0.313
- relative viability (Trametinib + Vorinostat; first compound 0.25 µM): 0.294
